From US11413329B2, “Cancer cell trap” (BOARD OF REGENTS, THE UNIVERSITY OF TEXAS SYSTEM, priority 2012, dated 2022)

Legend:
[1] = In vivo release rate of chemotherapy drugs from hydrogel nanoparticle traps; settings: from EPO-loaded hydrogel nanoparticles
Procedure: (§1) The fabrication of temperature sensitive hydrogel nanoparticles is described in the recent publication (Cai T, Hu P, Sun M, Zhou J, Tsai Y-T, Baker D W, Tang L. Novel thermogelling dispersions of polymer nanoparticles for controlled protein release. Nanomedicine 8 (8): 1301-8, 2012). The nanoparticles were loaded with EPO (600 international units/1 ml) in the presence or absence of doxorubicine (300 μg/m1) and paclitaxel (30 mg/ml). For that, EPO (600 international units), doxorubicine (300 μg) or paclitaxel (30 mg) was mixed with 50 μg of hydrogel nanoparticles at room temperature. After implantation, the average in vivo release rates for doxorubicin and paclitaxel were measured at 10 μg/day and 1 mg/day, respectively.

melanoma cells = experiment: Cancer cell killing at implant sites of EPO+paclitaxel-loaded particles; format: in vivo, C57 mice; settings: EPO+paclitaxel-loaded vs EPO-loaded particles, 1, 2, 4, and 7 days
Procedure: as §1
(§2) Further studies were carried out to determine whether the implantation of chemotherapy drug-loaded cancer cell traps can kill cancer cells at the implant sites. […] To quantify cell recruitment, tissue section images were taken using a Leica fluorescence microscope (Leica Microsystems Wetzlar GmbH, Wetzlar, Germany) equipped with a QImaging Retiga-EXi CCD camera (QImaging, Surrey, BC, Canada). The tissue section images at a magnification of 400× (viewing area 0.24 mm^2) were then used to quantify the cell numbers per view field by cell counter plugin of ImageJ processing program.

PC3 cells = experiment: Cancer cell killing at implant sites of EPO+doxorubicin-loaded particles; format: in vivo; settings: EPO+doxorubicin-loaded vs EPO-loaded particles, 1, 2, 4, and 7 days
Procedure: as §1, §2

## CC(=O)O[C@H]1C(=O)[C@@]2(C)[C@H]([C@H](OC(=O)c3ccccc3)[C@]3(O)C[C@H](OC(=O)[C@H](O)[C@@H](NC(=O)c4ccccc4)c4ccccc4)C(C)=C1C3(C)C)[C@]1(OC(C)=O)CO[C@@H]1C[C@@H]2O [paclitaxel]
[1]; 30 mg/ml
  average in vivo release rate: 1 mg/day
Melanoma cells
  numbers of recruited melanoma cells at implant: substantially reduced

## COc1cccc2c1C(=O)c1c(O)c3c(c(O)c1C2=O)C[C@@](O)(C(=O)CO)C[C@@H]3O[C@H]1C[C@H](N)[C@H](O)[C@H](C)O1 [doxorubicin]
[1]; 300 μg/ml
  average in vivo release rate: 0.01 mg/day
PC3 cells
  numbers of recruited PC3 cells at implant: substantially reduced
